{"source": "patent US7709636B2", "about": "“Pyrazole sulfonylurea compound and herbicide” (Nissan Chemical Industries, Ltd., priority 2004, dated 2010)", "key": {"Echinochloa crus-galli [1]": {"tested_on": "Echinochloa crus-galli", "test": "Herbicidal effect test in submerged condition by treatment during weed-growth stage (1)", "type": "in vivo", "conditions": "0.64 g/a, treated at 1st to 2nd leaf stage, 3 weeks after treatment", "protocol": "(§1) Herbicidal Effect Test in Submerged Condition by Treatment During Weed-Growth Stage (1) After alluvial soil was placed in a styrol cup of 1/30000 are, water was poured therein and mixed, and adjusted to a submerged condition of water depth 4 cm. After seeds of Echinochloa crus-galli, Scirpus juncoides and Monochoria vaginalis were sown in the cup, the plants were grown by putting the cup in a green house at 25 to 30° C. When Echinochloa crus-galli, Scirpus juncoides and Monochoria vaginalis reached 1st to 2nd leaf stage, the wettable powder of the present invention prepared according to Formulation Example 1 was diluted with water so as to give a predetermined formulation amount, and the surface of the water was treated with the diluted wettable powder. The herbicidal effect for each plant was investigated 3 weeks after treatment with the herbicide according to the criteria indicated in Test Example 1."}, "Monochoria vaginalis": {"tested_on": "Monochoria vaginalis", "test": "Herbicidal effect test in submerged condition by treatment during weed-growth stage (1)", "type": "in vivo", "conditions": "0.64 g/a, treated at 1st to 2nd leaf stage, 3 weeks after treatment", "protocol": "as §1"}, "Scirpus juncoides": {"tested_on": "Scirpus juncoides", "test": "Herbicidal effect test in submerged condition by treatment during weed-growth stage (1)", "type": "in vivo", "conditions": "0.64 g/a, treated at 1st to 2nd leaf stage, 3 weeks after treatment", "protocol": "as §1"}, "Abutilon avicennae": {"tested_on": "Abutilon avicennae", "test": "Herbicidal effect test by soil treatment", "type": "in vivo", "conditions": "1.6 g/a, 3 weeks after treatment", "description": "(§2) Herbicidal Effect Test by Soil Treatment\n(§3) Sterilized diluvial soil was placed in a plastic box having a size of length 21 cm, width 13 cm and depth 7 cm, seeds Echinochloa crus-galli, Digitaria adscendes, Setaria viridis, Avena fatua, Black-grass, Abutilon avicennae, Ambrosia elatior, Amaranthus retroflexus, Chenopodium album, Polygonum blumei, Stellaria media, Zea mays (corn), Glycine max (soybean), Oryza sativa (rice), Triticum aestivum (wheat) and Beta vulgaris (beat) were sown interspatially, covered with about 1.5 cm of soil, and then the wettable powder of the present invention prepared according to Formulation Example 1 was diluted with water so as to give a predetermined formulation amount, and the surface of the soil was uniformly treated with the diluted wettable powder by use of a small-sized spray. The herbicidal effect for each plant was investigated 3 weeks after treatment with the herbicide according to the criteria indicated in Test Example 1."}, "Amaranthus retroflexus": {"tested_on": "Amaranthus retroflexus", "test": "Herbicidal effect test by soil treatment", "type": "in vivo", "conditions": "1.6 g/a, 3 weeks after treatment", "description": "as §2, §3"}, "Ambrosia elatior": {"tested_on": "Ambrosia elatior", "test": "Herbicidal effect test by soil treatment", "type": "in vivo", "conditions": "1.6 g/a, 3 weeks after treatment", "description": "as §2, §3"}, "Avena fatua": {"tested_on": "Avena fatua", "test": "Herbicidal effect test by soil treatment", "type": "in vivo", "conditions": "1.6 g/a, 3 weeks after treatment", "description": "as §2, §3"}, "Beta vulgaris (beet)": {"tested_on": "Beta vulgaris (beet)", "test": "Herbicidal effect test by soil treatment", "type": "in vivo", "conditions": "1.6 g/a, 3 weeks after treatment", "description": "as §2, §3"}, "Black-grass": {"tested_on": "Black-grass", "test": "Herbicidal effect test by soil treatment", "type": "in vivo", "conditions": "1.6 g/a, 3 weeks after treatment", "description": "as §2, §3"}, "Chenopodium album": {"tested_on": "Chenopodium album", "test": "Herbicidal effect test by soil treatment", "type": "in vivo", "conditions": "1.6 g/a, 3 weeks after treatment", "description": "as §2, §3"}, "Digitaria adscendes": {"tested_on": "Digitaria adscendes", "test": "Herbicidal effect test by soil treatment", "type": "in vivo", "conditions": "1.6 g/a, 3 weeks after treatment", "description": "as §2, §3"}, "Echinochloa crus-galli [2]": {"tested_on": "Echinochloa crus-galli", "test": "Herbicidal effect test by soil treatment", "type": "in vivo", "conditions": "1.6 g/a, 3 weeks after treatment", "description": "as §2, §3"}, "Polygonum blumei": {"tested_on": "Polygonum blumei", "test": "Herbicidal effect test by soil treatment", "type": "in vivo", "conditions": "1.6 g/a, 3 weeks after treatment", "description": "as §2, §3"}, "Setaria viridis": {"tested_on": "Setaria viridis", "test": "Herbicidal effect test by soil treatment", "type": "in vivo", "conditions": "1.6 g/a, 3 weeks after treatment", "description": "as §2, §3"}, "Stellaria media": {"tested_on": "Stellaria media", "test": "Herbicidal effect test by soil treatment", "type": "in vivo", "conditions": "1.6 g/a, 3 weeks after treatment", "description": "as §2, §3"}, "[3]": {"tested_on": "Triticum aestivum (wheat)", "test": "Herbicidal effect test by soil treatment", "type": "in vivo", "conditions": "1.6 g/a, 3 weeks after treatment", "description": "as §2, §3"}, "corn (Zea mays)": {"tested_on": "corn (Zea mays)", "test": "Herbicidal effect test by soil treatment", "type": "in vivo", "conditions": "1.6 g/a, 3 weeks after treatment", "description": "as §2, §3"}, "soybean (Glycine max)": {"tested_on": "soybean (Glycine max)", "test": "Herbicidal effect test by soil treatment", "type": "in vivo", "conditions": "1.6 g/a, 3 weeks after treatment", "description": "as §2, §3"}, "direct sown rice": {"tested_on": "direct sown rice", "test": "Herbicidal effect test by soil treatment", "type": "in vivo, Oryza sativa", "conditions": "1.6 g/a, 3 weeks after treatment", "description": "as §2, §3"}}}
{"smiles": "COc1cc(OC)nc(NC(=O)NS(=O)(=O)c2c(C3=NOC(C)CO3)c(C)nn2C)n1", "note": "(stereo not shown) [Compound 9, N-((4,6-dimethoxypyrimidin-2-yl)aminocarbonyl)-1,3-dimethyl-4-(6-methyl-5H,6H-1,4,2-dioxadin-3-yl)pyrazole-5-sulfonamide]", "values": [{"measurement": "herbicidal effect, A: Echinochloa crus-galli", "setting": "Echinochloa crus-galli [1]", "value": "5 (Herbicidal rate 90% or more (almost complete death))"}, {"measurement": "herbicidal effect, C: Monochoria vaginalis", "setting": "Monochoria vaginalis", "value": "5 (Herbicidal rate 90% or more (almost complete death))"}, {"measurement": "herbicidal effect, B: Scirpus juncoides", "setting": "Scirpus juncoides", "value": "5 (Herbicidal rate 90% or more (almost complete death))"}, {"measurement": "herbicidal effect, H: Abutilon avicennae", "setting": "Abutilon avicennae", "value": "4 (Herbicidal rate 70% or more and less than 90%)"}, {"measurement": "herbicidal effect, J: Amaranthus retroflexus", "setting": "Amaranthus retroflexus", "value": "5 (Herbicidal rate 90% or more (almost complete death))"}, {"measurement": "herbicidal effect, I: Ambrosia elatior", "setting": "Ambrosia elatior", "value": "5 (Herbicidal rate 90% or more (almost complete death))"}, {"measurement": "herbicidal effect, F: Avena fatua", "setting": "Avena fatua", "value": "3 (Herbicidal rate 40% or more and less than 70%)"}, {"measurement": "herbicidal effect, f: Beta vulgaris (beet)", "setting": "Beta vulgaris (beet)", "value": "5 (Herbicidal rate 90% or more (almost complete death))"}, {"measurement": "herbicidal effect, G: Black-grass", "setting": "Black-grass", "value": "5 (Herbicidal rate 90% or more (almost complete death))"}, {"measurement": "herbicidal effect, K: Chenopodium album", "setting": "Chenopodium album", "value": "5 (Herbicidal rate 90% or more (almost complete death))"}, {"measurement": "herbicidal effect, D: Digitaria adscendes", "setting": "Digitaria adscendes", "value": "4 (Herbicidal rate 70% or more and less than 90%)"}, {"measurement": "herbicidal effect, A: Echinochloa crus-galli", "setting": "Echinochloa crus-galli [2]", "value": "4 (Herbicidal rate 70% or more and less than 90%)"}, {"measurement": "herbicidal effect, L: Polygonum blumei", "setting": "Polygonum blumei", "value": "5 (Herbicidal rate 90% or more (almost complete death))"}, {"measurement": "herbicidal effect, E: Setaria viridis", "setting": "Setaria viridis", "value": "4 (Herbicidal rate 70% or more and less than 90%)"}, {"measurement": "herbicidal effect, M: Stellaria media", "setting": "Stellaria media", "value": "5 (Herbicidal rate 90% or more (almost complete death))"}, {"measurement": "herbicidal effect, e: Triticum aestivum (wheat)", "setting": "[3]", "value": "5 (Herbicidal rate 90% or more (almost complete death))"}, {"measurement": "herbicidal effect, b: corn (Zea mays)", "setting": "corn (Zea mays)", "value": "5 (Herbicidal rate 90% or more (almost complete death))"}, {"measurement": "herbicidal effect, c: soybean (Glycine max)", "setting": "soybean (Glycine max)", "value": "5 (Herbicidal rate 90% or more (almost complete death))"}, {"measurement": "herbicidal effect, d: direct sown rice", "setting": "direct sown rice", "value": "5 (Herbicidal rate 90% or more (almost complete death))"}]}
